Reference: BindingDB's records for doi:10.1016/j.bioorg.2016.07.013 (Shenyang Pharmaceutical University, 2016)

What was measured:
Acetylcholinesterase = Acetylcholinesterase (Homo sapiens, UniProt P22303); experiment: AChE and BuChE Inhibition Assay; details: pH 8
Protocol: (§1) The reaction mixture was consisted of 100 µL of the total volume.

Cholinesterase = Cholinesterase (Homo sapiens, UniProt P06276); experiment: AChE and BuChE Inhibition Assay; details: pH 8
Protocol: as §1

Sequence of Acetylcholinesterase (P22303 whole entry): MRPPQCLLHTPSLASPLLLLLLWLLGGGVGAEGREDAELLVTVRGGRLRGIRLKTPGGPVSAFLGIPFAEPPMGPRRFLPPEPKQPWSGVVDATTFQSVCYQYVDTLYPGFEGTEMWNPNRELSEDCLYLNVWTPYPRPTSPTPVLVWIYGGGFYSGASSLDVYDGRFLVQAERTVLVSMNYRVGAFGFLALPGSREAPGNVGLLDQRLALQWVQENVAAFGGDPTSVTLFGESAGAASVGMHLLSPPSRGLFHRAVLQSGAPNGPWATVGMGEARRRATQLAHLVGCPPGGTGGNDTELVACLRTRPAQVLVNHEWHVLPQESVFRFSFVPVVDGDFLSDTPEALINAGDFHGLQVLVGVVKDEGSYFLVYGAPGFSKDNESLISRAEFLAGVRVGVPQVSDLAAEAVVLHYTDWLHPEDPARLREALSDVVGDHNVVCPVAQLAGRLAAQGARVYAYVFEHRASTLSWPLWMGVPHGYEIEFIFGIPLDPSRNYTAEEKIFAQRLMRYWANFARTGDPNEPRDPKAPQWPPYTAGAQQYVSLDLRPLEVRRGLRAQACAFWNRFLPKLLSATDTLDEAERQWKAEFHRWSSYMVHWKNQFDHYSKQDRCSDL
Sequence of Cholinesterase (P06276 whole entry): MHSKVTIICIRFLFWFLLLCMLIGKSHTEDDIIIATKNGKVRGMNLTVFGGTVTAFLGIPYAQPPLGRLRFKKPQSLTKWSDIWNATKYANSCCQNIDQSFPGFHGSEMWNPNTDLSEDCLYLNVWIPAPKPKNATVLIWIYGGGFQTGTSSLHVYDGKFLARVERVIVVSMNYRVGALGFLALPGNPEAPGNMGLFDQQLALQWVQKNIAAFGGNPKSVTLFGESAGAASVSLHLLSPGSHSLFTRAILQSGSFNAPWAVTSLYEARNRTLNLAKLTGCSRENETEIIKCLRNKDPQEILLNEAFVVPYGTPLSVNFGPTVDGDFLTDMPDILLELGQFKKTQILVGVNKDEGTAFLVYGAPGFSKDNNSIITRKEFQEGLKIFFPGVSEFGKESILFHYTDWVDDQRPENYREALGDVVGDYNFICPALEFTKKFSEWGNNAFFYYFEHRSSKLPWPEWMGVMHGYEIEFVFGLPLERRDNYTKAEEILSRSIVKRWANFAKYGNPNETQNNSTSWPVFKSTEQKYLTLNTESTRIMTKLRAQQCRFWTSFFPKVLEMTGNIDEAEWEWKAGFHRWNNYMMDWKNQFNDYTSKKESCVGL

| Compound | IC50 (Acetylcholinesterase) | IC50 (Cholinesterase) |
| --- | --- | --- |
| CCN1CCN(Cc2ccc(NC(=O)c3cc4ccccc4oc3=O)cc2Cl)CC1 [N-(3-chloro-4-((4-ethylpiperazin-1-yl)methyl)phenyl)-2-oxo-2H-chromene-3-carboxamide (9l)] | 1300 nM | 1590 nM |
| CCN1CCN(Cc2ccc(NC(=O)c3cc4cc([N+](=O)[O-])ccc4oc3=O)cc2Cl)CC1 [N-(3-chloro-4-((4-ethylpiperazin-1-yl)methyl)phenyl)-6-nitro-2-oxo-2H-chromene-3-carboxamide (9x)] | 34 nM | – |
| CCN1CCN(Cc2ccc(NC(=O)c3cc4ccc(OC)cc4oc3=O)cc2Cl)CC1 [N-(3-chloro-4-((4-ethylpiperazin-1-yl)methyl)phenyl)-7-methoxy-2-oxo-2H-chromene-3-carboxamide (9f)] | 122 nM | – |
| CCN1CCN(Cc2ccc(NC(=O)c3cc4cc(Cl)ccc4oc3=O)cc2Cl)CC1 [6-Chloro-N-(3-chloro-4-((4-ethylpiperazin-1-yl)methyl)phenyl)-2-oxo-2H-chromene-3-carboxamide (9p)] | 222 nM | – |
| CN1CCN(Cc2ccc(NC(=O)c3cc4cc([N+](=O)[O-])ccc4oc3=O)cc2Cl)CC1 [N-(3-chloro-4-((4-methylpiperazin-1-yl)methyl)phenyl)-6-nitro-2-oxo-2H-chromene-3-carboxamide (9y)] | 807 nM | 1880 nM |
| CCN1CCN(Cc2ccc(NC(=O)c3cc4cccc(OC)c4oc3=O)cc2Cl)CC1 [N-(3-chloro-4-((4-ethylpiperazin-1-yl)methyl)phenyl)-8-methoxy-2-oxo-2H-chromene-3-carboxamide (9a)] | 195 nM | – |
| CCN1CCN(Cc2ccc(NC(=O)c3cc4cc(Br)ccc4oc3=O)cc2Cl)CC1 [6-Bromo-N-(3-chloro-4-((4-ethylpiperazin-1-yl)methyl)phenyl)-2-oxo-2H-chromene-3-carboxamide (9t)] | 120 nM | – |
| COc1cccc2cc(C(=O)Nc3ccc(CN4CCN(C)CC4)c(Cl)c3)c(=O)oc12 [N-(3-chloro-4-((4-methylpiperazin-1-yl)methyl)phenyl)-8-methoxy-2-oxo-2H-chromene-3-carboxamide (9b)] | 1220 nM | 1770 nM |
| COc1ccc2cc(C(=O)Nc3ccc(CN4CCN(C)CC4)c(C(F)(F)F)c3)c(=O)oc2c1 [7-Methoxy-N-(4-((4-methylpiperazin-1-yl)methyl)-3-(trifluoromethyl)phenyl)-2-oxo-2H-chromene-3-carboxamide (9j)] | 591 nM | – |
| CN1CCN(Cc2ccc(NC(=O)c3cc4cc(Br)ccc4oc3=O)cc2Cl)CC1 [6-Bromo-N-(3-chloro-4-((4-methylpiperazin-1-yl)methyl)phenyl)-2-oxo-2H-chromene-3-carboxamide (9u)] | 330 nM | 1890 nM |
| COc1ccc2cc(C(=O)Nc3ccc(CN4CCN(C)CC4)c(Cl)c3)c(=O)oc2c1 [N-(3-chloro-4-((4-methylpiperazin-1-yl)methyl)phenyl)-7-methoxy-2-oxo-2H-chromene-3-carboxamide (9g)] | 1540 nM | 1680 nM |
| CN1CCN(Cc2ccc(NC(=O)c3cc4cc(Cl)ccc4oc3=O)cc2Cl)CC1 [6-Chloro-N-(3-chloro-4-((4-methylpiperazin-1-yl)methyl)phenyl)-2-oxo-2H-chromene-3-carboxamide (9q)] | 841 nM | 1790 nM |
| CN1CCN(Cc2ccc(NC(=O)c3cc4ccccc4oc3=O)cc2Cl)CC1 [N-(3-chloro-4-((4-methylpiperazin-1-yl)methyl)phenyl)-2-oxo-2H-chromene-3-carboxamide (9k)] | 1300 nM | 1970 nM |
| CN1CCN(Cc2ccc(NC(=O)c3cc4ccccc4oc3=O)cc2C(F)(F)F)CC1 [N-(4-((4-methylpiperazin-1-yl)methyl)-3-(trifluoromethyl)phenyl)-2-oxo-2H-chromene-3-carboxamide (9o)] | 618 nM | – |
| COc1cccc2cc(C(=O)Nc3ccc(CN4CCN(C)CC4)c(C(F)(F)F)c3)c(=O)oc12 [8-Methoxy-N-(4-((4-methylpiperazin-1-yl)methyl)-3-(trifluoromethyl)phenyl)-2-oxo-2H-chromene-3-carboxamide (9d)] | 1450 nM | – |
